According to US20260068882A1, “ARTHROPOD CONTROLLING COMPOSITION” (Firmenich SA, priority 2019, published 2026):
Counter-ions that a name gives are not always drawn. Like-named read-outs stand apart in the source and are kept apart here.

Columns and labels:
Aedes aegypti = assay: In vitro Warm Body assay, mosquitoes landing on treated warm body; format: in vivo
How it was run: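 Adapted Warm Body assay with host-seeking, non-blood-fed, sugar-fed A. aegypti Rockefeller females aged 5–10 days (10–12 days in one set); cages held 30 (or 25) females at 150 lux. Landings were counted automatically. Doses in ethanol were 0.0016%, 0.04% and 1% in triplicate, or a single replicate across 0.0016–1%.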

Ixodes ricinus = assay: In vitro Warm Plate Assay for ticks; format: in vivo
How it was run: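 Repellency against last-stage Ixodes ricinus nymphs in an in vitro warm plate assay, compounds diluted in ethanol at 0.4 and 10 mg/mL, 0.0016% to 1%, or 20% (w/w). Ticks walking down or falling from the treated plate scored as affected, walking up as unaffected; groups of 12 ticks, n=2-5.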

[1] = Ixodes ricinus, 0.0016% (Table 11), read-out: percentage of ticks affected on the Warm Plate
[2] = Ixodes ricinus, 0.04% (Table 11), read-out: percentage of ticks affected on the Warm Plate
[3] = Ixodes ricinus, 1% (Table 11), read-out: percentage of ticks affected on the Warm Plate
[4] = Ixodes ricinus, read-out: percentage of ticks affected on the Warm Plate
[5] = Aedes aegypti, read-out: decrease of landings
[6] = Ixodes ricinus, 0.04% (Table 10), read-out: percentage of ticks affected on the Warm Plate
[7] = Ixodes ricinus, 0.2% (Table 10), read-out: percentage of ticks affected on the Warm Plate
[8] = Ixodes ricinus, 1% (Table 10), read-out: percentage of ticks affected on the Warm Plate

**Q.** What does the source list for `CC1(CO)Cc2ccccc2C1` [(2-methyl-1,3-dihydroinden-2-yl)methanol]?
**A.** number of mosquitoes landed on the Warm Body (Aedes aegypti; 0.0016% in ethanol (Table 6)): 65; number of mosquitoes landed on the Warm Body (Aedes aegypti; 0.04% in ethanol (Table 6)): 16; number of mosquitoes landed on the Warm Body (Aedes aegypti; 1% in ethanol (Table 6)): 1; pest or weed control at 0.0016 % (Ixodes ricinus; [1]): 0%; pest or weed control at 0.04 % (Ixodes ricinus; [2]): 14%; pest or weed control at 1 % (Ixodes ricinus; [3]): 92%

**Q.** With `CCCCC[C@@H]1C(=O)CC[C@@H]1CC(=O)OC` [ingredient #4, (+)-methyl (1R)-cis-3-oxo-2-pentyl-1-cyclopentaneacetate, reference compound] as the compound, how does the “number of mosquitoes landed on the Warm Body” value (from here on “number of mosquitoes landed”) (Aedes aegypti; 0.0016% in ethanol (Table 7, one replicate)) read?
**A.** 66

**Q.** What about the “number of mosquitoes landed” value (Aedes aegypti; 0.008% in ethanol (Table 7, one replicate)) of the same compound?
**A.** 53

**Q.** And the “number of mosquitoes landed” value (Aedes aegypti; 0.04% in ethanol (Table 7, one replicate))?
**A.** 16

**Q.** What about the “number of mosquitoes landed” value (Aedes aegypti; 0.2% in ethanol (Table 7, one replicate)) of the same compound?
**A.** 17

**Q.** What about the “number of mosquitoes landed” value (Aedes aegypti; 1% in ethanol (Table 7, one replicate)) of the same compound?
**A.** 4

**Q.** What about the pest or weed control at 0.0016 % (Ixodes ricinus; [4]) of the same compound?
**A.** 15%

**Q.** What about the pest or weed control at 0.0053 % (Ixodes ricinus; [4]) of the same compound?
**A.** 17%

**Q.** And the pest or weed control at 0.008 % (Ixodes ricinus; [4])?
**A.** 8%

**Q.** What about the pest or weed control at 0.0119 % (Ixodes ricinus; [4]) of the same compound?
**A.** 0%

**Q.** And the pest or weed control at 0.0178 % (Ixodes ricinus; [4])?
**A.** 33%

**Q.** And the pest or weed control at 0.0267 % (Ixodes ricinus; [4])?
**A.** 36%

**Q.** What about the pest or weed control at 0.04 % (Ixodes ricinus; [4]) of the same compound?
**A.** 92%

**Q.** And the pest or weed control at 0.0598 % (Ixodes ricinus; [4])?
**A.** 100%

**Q.** What about the pest or weed control at 0.089 % (Ixodes ricinus; [4]) of the same compound?
**A.** 100%

**Q.** And the pest or weed control at 0.2 % (Ixodes ricinus; [4])?
**A.** 100%

**Q.** And the pest or weed control at 0.447 % (Ixodes ricinus; [4])?
**A.** 92%

**Q.** What about the pest or weed control at 1 % (Ixodes ricinus; [4]) of the same compound?
**A.** 100%

**Q.** How did the pest or weed control at 0.0016 % (Aedes aegypti; [5]) turn out when `Cc1ccc2c(c1)CC(C)(COC=O)C2` (centres unmarked) [(2,5-dimethyl-2-indanyl)methyl formate] was run?
**A.** 4 to 29%

**Q.** And the pest or weed control at 0.0016 % (Ixodes ricinus; [1])?
**A.** 0%

**Q.** And the pest or weed control at 0.04 % (Ixodes ricinus; [2])?
**A.** 7%

**Q.** What about the pest or weed control at 1 % (Ixodes ricinus; [3]) of the same compound?
**A.** 85%

**Q.** Which pest or weed control at 0.0016 % (Aedes aegypti; [5]) does the source give for `CC(C)c1ccc2c(c1)CC(C)(CO)C2` (racemic) [5-isopropyl-2-methyl-2-indanmethanol] here?
**A.** 4 to 29%

**Q.** And the pest or weed control at 0.00032 % (Ixodes ricinus; Ixodes ricinus, 0.00032% (Table 10), read-out: percentage of ticks affected on the Warm Plate)?
**A.** 0%

**Q.** And the pest or weed control at 0.0016 % (Ixodes ricinus; Ixodes ricinus, 0.0016% (Table 10), read-out: percentage of ticks affected on the Warm Plate)?
**A.** 21%

**Q.** What about the pest or weed control at 0.008 % (Ixodes ricinus; Ixodes ricinus, 0.008% (Table 10), read-out: percentage of ticks affected on the Warm Plate) of the same compound?
**A.** 0%

**Q.** And the pest or weed control at 0.04 % (Ixodes ricinus; [6])?
**A.** 71%

**Q.** What about the pest or weed control at 0.2 % (Ixodes ricinus; [7]) of the same compound?
**A.** 87%

**Q.** What about the pest or weed control at 1 % (Ixodes ricinus; [8]) of the same compound?
**A.** 92%

**Q.** What about the “concentration at which the level of 85% of ticks affected is reached” value (Ixodes ricinus; Tables 10 and 12) of the same compound?
**A.** 0.2%

**Q.** `N#CC1Cc2ccccc2C1` [2,3-dihydro-1H-indene-2-carbonitrile] was tested. Which “number of mosquitoes landed” value (Aedes aegypti; 0.0016% in ethanol (Table 6)) did it give?
**A.** 59

**Q.** What about the “number of mosquitoes landed” value (Aedes aegypti; 0.04% in ethanol (Table 6)) of the same compound?
**A.** 13

**Q.** And the pest or weed control at 0.04 % (Ixodes ricinus; [6])?
**A.** 29%

**Q.** What about the pest or weed control at 0.2 % (Ixodes ricinus; [7]) of the same compound?
**A.** 71%

**Q.** And the pest or weed control at 1 % (Ixodes ricinus; [8])?
**A.** 100%

**Q.** `Cc1ccc2c(c1)CC(C)(C(C)O)C2` (centres unmarked) [1-(2,5-dimethyl-2-indanyl)-1-ethanol] was tested. Which pest or weed control at 0.04 % (Aedes aegypti; [5]) did it give?
**A.** ~70%

**Q.** And the pest or weed control at 0.0016 % (Ixodes ricinus; [1])?
**A.** 15%

**Q.** And the pest or weed control at 0.04 % (Ixodes ricinus; [2])?
**A.** 0%

**Q.** What about the pest or weed control at 1 % (Ixodes ricinus; [3]) of the same compound?
**A.** 100%
